Measurements as given in the NIST ThermoML archive (doi:10.1021/je700260f).

Settings: Liquid, Vibrating tube method

FC(C(F)(F)F)C(F)(F)F [1,1,1,2,3,3,3-heptafluoropropane]
Settings | mass density [kg/m3]
293.15 K, 27338 kPa | 1533.2
293.15 K, 27374 kPa | 1533.1
293.15 K, 27410 kPa | 1533.2
293.15 K, 27435 kPa | 1533.3
293.15 K, 27481 kPa | 1533.5
293.15 K, 27522 kPa | 1533.7
293.15 K, 27553 kPa | 1533.7
293.15 K, 27589 kPa | 1533.9
293.15 K, 27619 kPa | 1533.9
293.15 K, 27655 kPa | 1534
293.15 K, 27692 kPa | 1534.2
293.15 K, 27728 kPa | 1534.3
293.15 K, 27759 kPa | 1534.5
293.15 K, 27800 kPa | 1534.5
293.15 K, 27841 kPa | 1534.6
293.15 K, 27871 kPa | 1534.8
293.15 K, 27912 kPa | 1534.9
293.15 K, 27953 kPa | 1534.9
293.15 K, 27984 kPa | 1535.1
293.15 K, 28026 kPa | 1535.1
293.15 K, 28067 kPa | 1535.5
293.15 K, 28097 kPa | 1535.4
293.15 K, 28144 kPa | 1535.6
293.15 K, 28185 kPa | 1535.7
293.15 K, 28216 kPa | 1535.9
293.15 K, 28258 kPa | 1536
293.15 K, 28300 kPa | 1536
293.15 K, 28327 kPa | 1536.1
293.15 K, 28369 kPa | 1536.4
293.15 K, 28411 kPa | 1536.5
293.15 K, 28442 kPa | 1536.7
293.15 K, 28484 kPa | 1536.7
293.15 K, 28520 kPa | 1536.8
293.15 K, 28556 kPa | 1536.8
293.15 K, 28588 kPa | 1537.1
293.15 K, 28619 kPa | 1537.1
293.15 K, 28667 kPa | 1537.3
293.15 K, 28709 kPa | 1537.3
293.15 K, 28735 kPa | 1537.5
293.15 K, 28783 kPa | 1537.7
293.15 K, 28823 kPa | 1537.8
293.15 K, 28855 kPa | 1537.9
293.15 K, 28908 kPa | 1538.1
293.15 K, 28956 kPa | 1538.2
293.15 K, 28983 kPa | 1538.2
293.15 K, 29030 kPa | 1538.3
293.15 K, 29072 kPa | 1538.5
293.15 K, 29104 kPa | 1538.5
293.15 K, 29147 kPa | 1538.8
293.15 K, 29179 kPa | 1538.8
293.15 K, 29229 kPa | 1539.1
293.15 K, 29256 kPa | 1539.1
293.15 K, 29289 kPa | 1539.1
293.15 K, 29337 kPa | 1539.3
293.15 K, 29385 kPa | 1539.4
293.15 K, 29417 kPa | 1539.6
293.15 K, 29460 kPa | 1539.7
293.15 K, 29497 kPa | 1539.7
293.15 K, 29528 kPa | 1540
293.15 K, 29566 kPa | 1540
293.15 K, 29603 kPa | 1540.2
293.15 K, 29637 kPa | 1540.3
293.15 K, 29675 kPa | 1540.4
293.15 K, 29718 kPa | 1540.6
293.15 K, 29751 kPa | 1540.4
293.15 K, 29782 kPa | 1540.6
293.15 K, 29810 kPa | 1540.8
293.15 K, 29843 kPa | 1540.9
293.15 K, 29870 kPa | 1540.9
293.15 K, 29903 kPa | 1541.1
293.15 K, 29936 kPa | 1541.1
293.15 K, 29969 kPa | 1541.3
293.15 K, 29997 kPa | 1541.2
293.15 K, 30026 kPa | 1541.4
293.15 K, 30054 kPa | 1541.5
293.15 K, 30083 kPa | 1541.6
293.15 K, 30120 kPa | 1541.8
293.15 K, 30153 kPa | 1541.8
293.15 K, 30181 kPa | 1541.9
293.15 K, 30215 kPa | 1542
293.15 K, 30248 kPa | 1542.1
293.15 K, 30287 kPa | 1542.3
293.15 K, 30316 kPa | 1542.4
293.15 K, 30350 kPa | 1542.5
293.15 K, 30389 kPa | 1542.5
293.15 K, 30423 kPa | 1542.7
293.15 K, 30456 kPa | 1542.8
293.15 K, 30493 kPa | 1542.8
293.15 K, 30522 kPa | 1542.9
293.15 K, 30560 kPa | 1543.2
293.15 K, 30598 kPa | 1543.1
293.15 K, 30626 kPa | 1543.2
293.15 K, 30669 kPa | 1543.4
293.15 K, 30713 kPa | 1543.5
293.15 K, 30742 kPa | 1543.5
293.15 K, 30776 kPa | 1543.6
293.15 K, 30815 kPa | 1543.8
293.15 K, 30853 kPa | 1543.9
293.15 K, 30887 kPa | 1543.9
293.15 K, 30920 kPa | 1544.1
293.15 K, 30958 kPa | 1544.3
293.15 K, 30982 kPa | 1544.4
293.15 K, 31020 kPa | 1544.4
293.15 K, 31063 kPa | 1544.6
293.15 K, 31092 kPa | 1544.7
293.15 K, 31136 kPa | 1544.7
293.15 K, 31164 kPa | 1544.7
293.15 K, 31189 kPa | 1544.9
293.15 K, 31232 kPa | 1545.1
293.15 K, 31270 kPa | 1545.2
293.15 K, 31299 kPa | 1545.2
293.15 K, 31327 kPa | 1545.4
293.15 K, 31356 kPa | 1545.3
293.15 K, 31400 kPa | 1545.5
293.15 K, 31438 kPa | 1545.7
293.15 K, 31468 kPa | 1545.7
293.15 K, 31506 kPa | 1545.8
293.15 K, 31537 kPa | 1546
293.15 K, 31563 kPa | 1546.1
293.15 K, 31593 kPa | 1546.1
293.15 K, 31636 kPa | 1546.3
293.15 K, 31669 kPa | 1546.4
293.15 K, 31698 kPa | 1546.4
293.15 K, 31742 kPa | 1546.6
293.15 K, 31786 kPa | 1546.7
293.15 K, 31815 kPa | 1546.8
293.15 K, 31854 kPa | 1546.8
293.15 K, 31882 kPa | 1547
293.15 K, 31919 kPa | 1547.1
293.15 K, 31954 kPa | 1547.1
293.15 K, 31986 kPa | 1547.3
293.15 K, 32022 kPa | 1547.3
293.15 K, 32055 kPa | 1547.6
293.15 K, 32096 kPa | 1547.7
293.15 K, 32136 kPa | 1547.8
293.15 K, 32163 kPa | 1547.7
293.15 K, 32205 kPa | 1548
293.15 K, 32245 kPa | 1548.1
293.15 K, 32272 kPa | 1548.1
293.15 K, 32309 kPa | 1548.2
293.15 K, 32338 kPa | 1548.3
293.15 K, 32381 kPa | 1548.3
293.15 K, 32418 kPa | 1548.5
293.15 K, 32447 kPa | 1548.7
293.15 K, 32494 kPa | 1548.7
293.15 K, 32531 kPa | 1548.9
293.15 K, 32565 kPa | 1548.9
293.15 K, 32598 kPa | 1549
293.15 K, 32635 kPa | 1549.1
293.15 K, 32668 kPa | 1549.3
293.15 K, 32711 kPa | 1549.4
293.15 K, 33629 kPa | 1552.1
293.15 K, 33659 kPa | 1552.1
293.15 K, 33704 kPa | 1552.3
293.15 K, 33734 kPa | 1552.3
293.15 K, 33769 kPa | 1552.5
293.15 K, 33809 kPa | 1552.5
293.15 K, 33844 kPa | 1552.5
293.15 K, 33879 kPa | 1552.6
293.15 K, 33925 kPa | 1552.9
293.15 K, 33976 kPa | 1553.1
293.15 K, 34008 kPa | 1553
293.15 K, 34053 kPa | 1553.2
293.15 K, 34100 kPa | 1553.3
293.15 K, 34131 kPa | 1553.5
293.15 K, 34173 kPa | 1553.5
293.15 K, 34220 kPa | 1553.9
293.15 K, 34257 kPa | 1553.9
293.15 K, 34293 kPa | 1553.8
293.15 K, 34336 kPa | 1554
293.15 K, 34374 kPa | 1554.1
293.15 K, 34415 kPa | 1554.3
293.15 K, 34442 kPa | 1554.3
293.15 K, 34464 kPa | 1554.4
293.15 K, 34489 kPa | 1554.4
293.15 K, 34511 kPa | 1554.7
293.15 K, 34523 kPa | 1554.6
293.15 K, 34537 kPa | 1554.6
293.15 K, 34546 kPa | 1554.6
303.14 K, 1230 kPa | 1372.6
303.14 K, 7245 kPa | 1416.2
303.14 K, 7273 kPa | 1416.3
303.14 K, 7298 kPa | 1416.5
303.14 K, 7327 kPa | 1416.7
303.14 K, 7356 kPa | 1416.8
303.14 K, 7384 kPa | 1417.1
303.14 K, 7413 kPa | 1417.1
303.14 K, 10852 kPa | 1437.1
303.14 K, 10890 kPa | 1437.1
303.14 K, 10918 kPa | 1437.3
303.14 K, 10989 kPa | 1437.6
303.14 K, 12092 kPa | 1443.4
303.14 K, 12132 kPa | 1443.6
303.14 K, 12163 kPa | 1443.8
303.14 K, 12207 kPa | 1443.9
303.14 K, 12242 kPa | 1444.1
303.14 K, 12284 kPa | 1444.2
303.14 K, 12330 kPa | 1444.6
303.14 K, 12373 kPa | 1444.7
303.14 K, 14583 kPa | 1455.6
303.14 K, 14620 kPa | 1455.8
303.14 K, 14653 kPa | 1455.9
303.14 K, 14687 kPa | 1456
303.14 K, 14726 kPa | 1456.4
303.14 K, 14755 kPa | 1456.5
